{"source": "patent US20200347043A1", "about": "“MODULATORS OF THE INTEGRATED STRESS PATHWAY” (Calico Life Sciences LLC, priority 2019, published 2020)"}
{"tested_on": "HEK293T cells carrying the ATF4 luciferase reporter", "experiment": "ATF4-Luc assay (in vitro model of VWMD)", "type": "cell-based, human", "conditions": "Homo sapiens, HEK-293T, 1 μg/mL tunicamycin, 7 hours, One Glo luminescence", "method_in_brief": "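Tunicamycin (1 μg/mL) stress with co-added compound for 7 hours in HEK293T cells stably carrying an ATF4 5′-UTR–luciferase reporter. EC50 values come from the luminescent signal (One Glo).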", "units": {"EC50": "nM"}}
{"smiles": "O=C(NC12CCC(c3nnc([C@H]4C[C@@H](OC(F)(F)F)C4)o3)(CC1)OC2)C1CC(O)c2cc(Cl)ccc2O1", "note": "(some centres unmarked) [Compound 165]", "EC50": "10 to 50"}
{"smiles": "O=C1CC(C(=O)NC23CCC(c4nnc([C@H]5C[C@@H](OC(F)(F)F)C5)o4)(CC2)CC3)Oc2ccc(Cl)cc21", "note": "(stereo partly drawn) [Compound 167, 6-chloro-4-oxo-N-(4-{5-[cis-3-(trifluoromethoxy)cyclobutyl]-1,3,4-oxadiazol-2-yl}bicyclo[2.2.2]octan-1-yl)-3,4-dihydro-2H-1-benzopyran-2-carboxamide]", "EC50": "10 to 50"}
{"smiles": "O=C(N[C@@H]1CC[C@@H](c2nnc([C@H]3C[C@@H](OC(F)(F)F)C3)o2)OC1)[C@H]1C[C@@H](O)c2cc(Cl)ccc2O1", "note": "[Compound 169, (2R,4R)-6-chloro-4-hydroxy-N-[(3R,6S)-6-{5-[cis-3-(trifluoromethoxy)cyclobutyl]-1,3,4-oxadiazol-2-yl}oxan-3-yl]-3,4-dihydro-2H-1-benzopyran-2-carboxamide]", "EC50": "< 10"}
{"smiles": "O=C(N[C@H]1CC[C@H](C(=O)NCc2ccc(C(F)(F)F)cn2)CC1)[C@@H]1C[C@@H](O)c2cc(Cl)ccc2O1", "note": "[Compound 172, (2S,4R)-6-chloro-4-hydroxy-N-[trans-4-({[5-(trifluoromethyl)pyridin-2-yl]methyl}carbamoyl)cyclohexyl]-3,4-dihydro-2H-1-benzopyran-2-carboxamide]", "EC50": "10 to 50"}
{"smiles": "O=C1C[C@H](C(=O)N[C@H]2CC[C@H](C(=O)N3CC(c4ccc(Cl)cc4)C3)CC2)Oc2ccc(Cl)cc21", "note": "[Compound 173, (2R)-6-chloro-N-{trans-4-[3-(4-chlorophenyl)azetidine-1-carbonyl]cyclohexyl}-4-oxo-3,4-dihydro-2H-1-benzopyran-2-carboxamide]", "EC50": "10 to 50"}
{"smiles": "O=C(N[C@H]1CC[C@H](C(=O)N2CC(c3ccc(Cl)cc3)C2)CC1)[C@H]1C[C@@H](O)c2cc(Cl)ccc2O1", "note": "[Compound 174, (2R,4R)-6-chloro-N-{trans-4-[3-(4-chlorophenyl)azetidine-1-carbonyl]cyclohexyl}-4-hydroxy-3,4-dihydro-2H-1-benzopyran-2-carboxamide]", "EC50": "< 10"}
{"smiles": "O=C1C[C@@H](C(=O)NC23CC(n4cnc(-c5ccc(F)c(F)c5)c4)(C2)C3)Oc2ccc(Cl)cc21", "note": "[Compound 175, (2S)-6-chloro-N-{3-[4-(3,4-difluorophenyl)-1H-imidazol-1-yl]bicyclo[1.1.1]pentan-1-yl}-4-oxo-3,4-dihydro-2H-1-benzopyran-2-carboxamide]", "EC50": "50 to 250"}
{"smiles": "O=C1C[C@H](C(=O)NC23CC(n4cnc(-c5ccc(F)c(F)c5)c4)(C2)C3)Oc2ccc(Cl)cc21", "note": "[Compound 176, (2R)-6-chloro-N-{3-[4-(3,4-difluorophenyl)-1H-imidazol-1-yl]bicyclo[1.1.1]pentan-1-yl}-4-oxo-3,4-dihydro-2H-1-benzopyran-2-carboxamide]", "EC50": "10 to 50"}
{"smiles": "O=C1C[C@@H](C(=O)N[C@@H]2CC[C@@H](c3nnc([C@H]4C[C@@H](OC(F)(F)F)C4)o3)OC2)Oc2ccc(Cl)cc21", "note": "[Compound 177, (2S)-6-chloro-4-oxo-N-[(3R,6S)-6-{5-[cis-3-(trifluoromethoxy)cyclobutyl]-1,3,4-oxadiazol-2-yl}oxan-3-yl]-3,4-dihydro-2H-1-benzopyran-2-carboxamide]", "EC50": "50 to 250"}
{"smiles": "O=C(N[C@H]1CC[C@H](C(=O)N2CC(c3ccc(Cl)cc3)C2)CC1)[C@@H]1C[C@@H](O)c2cc(Cl)ccc2O1", "note": "[Compound 178]", "EC50": "10 to 50"}
{"smiles": "O=C1C[C@H](C(=O)NC23CC(N4CCN(c5ccc(Cl)cc5)C4=O)(C2)C3)Oc2ccc(Cl)cc21", "note": "[Compound 179, (2R)-6-chloro-N-{3-[3-(4-chlorophenyl)-2-oxoimidazolidin-1-yl]bicyclo[1.1.1]pentan-1-yl}-4-oxo-3,4-dihydro-2H-1-benzopyran-2-carboxamide]", "EC50": "50 to 250"}
{"smiles": "O=C(NC12CC(n3cnc(-c4ccc(F)c(F)c4)c3)(C1)C2)[C@@H]1C[C@H](O)c2cc(Cl)ccc2O1", "note": "[Compound 180, (2S,4S)-6-chloro-N-{3-[4-(3,4-difluorophenyl)-1H-imidazol-1-yl]bicyclo[1.1.1]pentan-1-yl}-4-hydroxy-3,4-dihydro-2H-1-benzopyran-2-carboxamide]", "EC50": "50 to 250"}
{"smiles": "O=C(NC12CC(n3cnc(-c4ccc(F)c(F)c4)c3)(C1)C2)[C@H]1C[C@@H](O)c2cc(Cl)ccc2O1", "note": "[Compound 181, (2R,4R)-6-chloro-N-{3-[4-(3,4-difluorophenyl)-1H-imidazol-1-yl]bicyclo[1.1.1]pentan-1-yl}-4-hydroxy-3,4-dihydro-2H-1-benzopyran-2-carboxamide]", "EC50": "< 10"}
{"smiles": "O=C(N[C@H]1CC[C@H](C(=O)N2CC(c3ccccc3)C2)CC1)[C@H]1C[C@@H](O)c2cc(Cl)ccc2O1", "note": "[Compound 182, (2R,4R)-6-chloro-4-hydroxy-N-[trans-4-(3-phenylazetidine-1-carbonyl)cyclohexyl]-3,4-dihydro-2H-1-benzopyran-2-carboxamide]", "EC50": "> 2000"}
{"smiles": "O=C(NC12CC(N3CCN(c4ccc(Cl)cc4)C3=O)(C1)C2)[C@H]1C[C@@H](O)c2cc(Cl)ccc2O1", "note": "[Compound 183, (2R,4R)-6-chloro-N-{3-[3-(4-chlorophenyl)-2-oxoimidazolidin-1-yl]bicyclo[1.1.1]pentan-1-yl}-4-hydroxy-3,4-dihydro-2H-1-benzopyran-2-carboxamide]", "EC50": "10 to 50"}
{"smiles": "O=C1C[C@H](C(=O)N[C@H]2CC[C@H](N3CCN(C4CC(OC(F)(F)F)C4)C3=O)CC2)Oc2ccc(Cl)cc21", "note": "(stereo partly drawn) [Compound 188, (2R)-6-chloro-4-oxo-N-[(1r,4R)-4-{2-oxo-3-[3-(trifluoromethoxy)cyclobutyl]imidazolidin-1-yl}cyclohexyl]-3,4-dihydro-2H-1-benzopyran-2-carboxamide]", "EC50": "> 2000"}
{"smiles": "O=C(CO[C@H]1C[C@@H](OC(F)(F)F)C1)NC12CCC(NC(=O)[C@H]3CC(=O)c4cc(F)c(F)cc4O3)(CC1)CC2", "note": "[Compound 189, (2R)-6,7-difluoro-4-oxo-N-[4-(2-{[cis-3-(trifluoromethoxy)cyclobutyl]oxy}acetamido)bicyclo[2.2.2]octan-1-yl]-3,4-dihydro-2H-1-benzopyran-2-carboxamide]", "EC50": "10 to 50"}
{"smiles": "O=C(NC12CCC(c3nnc([C@H]4C[C@@H](OC(F)(F)F)C4)o3)(CC1)OC2)[C@@H]1C[C@H](O)c2cc(Cl)ccc2O1", "note": "[Compound 190, (2S,4S)-6-chloro-4-hydroxy-N-(1-{5-[cis-3-(trifluoromethoxy)cyclobutyl]-1,3,4-oxadiazol-2-yl}-2-oxabicyclo[2.2.2]octan-4-yl)-3,4-dihydro-2H-1-benzopyran-2-carboxamide]", "EC50": "50 to 250"}
{"smiles": "O=C(NC12CCC(c3nnc([C@H]4C[C@@H](OC(F)(F)F)C4)o3)(CC1)OC2)[C@H]1C[C@@H](O)c2cc(Cl)ccc2O1", "note": "[Compound 191, (2R,4R)-6-chloro-4-hydroxy-N-(1-{5-[cis-3-(trifluoromethoxy)cyclobutyl]-1,3,4-oxadiazol-2-yl}-2-oxabicyclo[2.2.2]octan-4-yl)-3,4-dihydro-2H-1-benzopyran-2-carboxamide]", "EC50": "< 10"}
{"smiles": "O=C(CO[C@H]1C[C@@H](OC(F)(F)F)C1)NC12CCC(NC(=O)[C@H]3CC(=O)c4cc(Cl)ccc4O3)(CC1)CC2", "note": "[Compound 192, (2R)-6-chloro-4-oxo-N-[4-(2-{[cis-3-(trifluoromethoxy)cyclobutyl]oxy}acetamido)bicyclo[2.2.2]octan-1-yl]-3,4-dihydro-2H-1-benzopyran-2-carboxamide]", "EC50": "10 to 50"}
